What was measured:
[1] = tested on: mutant myocilin; test: Cellular studies of mutant myocilin degradation; format: cell-based
[2] = tested on: human trabecular meshwork (HTM) cells; test: HTM cell lysates, intracellular Collagen I and Fibronectin (Western blot); format: cell-based
Method: (§1) HTM Treatments: Low passage number human trabecular meshwork (HTM) cells were cultured in DMEM supplemented with 10% fetal bovine serum and 1% penicillin/streptomycin. HTM cells were treated for 10 days (replaced every 2-3 days) with 100 nM dexamethasone. HTM cells were validated by expression of myocilin under these conditions.
(§2) Western and Dot Blots: Anterior eye segments and HTM cells were lysed in RIPA buffer. HTM lysates were separated by SDS-PAGE and transferred to a PVDF membrane. Lysates and culture media for dot blots were applied to a nitrocellulose membrane. Blots were blocked in 7% non-fat milk solution. Myocilin antibody was provided by W. D. Stamer. Collagen I and Fibronectin antibodies were purchased from Santa Cruz Biotechnology. Actin antibody was purchased from Sigma Aldrich (St. Louis, Mo.). Blots were developed using species specific secondary antibodies from Southern Biotech.
(§3) Quantification and Statistical Analysis: Two-tailed student's t-test and two-way ANOVA with Bonferroni's post-hoc tests were used as detailed in the figure legends. Values were considered significant if p<0.05. Graphs were generated using GraphPad Prism 5.0 analysis software or Microsoft Excel. N-value in this study is depicted as number of animals or number of eyes where indicated. Graphs are plotted as ±SEM or % CV as indicated.

[3] = tested on: ECM components (Collagen I, Fibronectin); test: ECM components in lysates of anterior eye sections of SIG model mice (dot blot / Western blot); format: in vivo, mouse; conditions: dex & 4Br-BnIm treated group; overall not statistically significant
Source text: Animal Husbandry: Mice were housed and bred at the University of South Florida Byrd Alzheimer's Institute. All animal procedures performed in this study followed the ARVO Statement for the Use of Animals in Ophthalmic and Vision Research and were approved by the University of South Florida Institutional Animal Care and Use Committee. A cohort of 35 animals from separate litters were used for this study; 20 male mice (10 WT and 10 Myoc-KO) and 15 female mice (8 WT and 7 Myoc-KO). […] Technicians performing the drug delivery and tonometry measurements were blinded for animal genotype as well as each compound and the respective vehicle treatment. […] No other treatment groups or geneotypes suffered losses. One WT animal on the Dex+4Br—BnIm study began the study with only one eye. […] 4Br—BnIm treatment dose was based on previous studies. […] The drop was allowed to sit on the eye for 1 minute before the mouse was returned to its cage. One drop of 0.1% Dexamethasone eye drops (Dexamethasone Sodium Phosphate Ophthalmic Solution USP, 0.1% Dexamethasone Phosphate Equivalent; Bauch and Lomb) or PBS (vehicle) was applied to each eye. Dexamethasone treatments were conducted at 6:30 AM, 9 AM, and 2 PM, every day. […]
Quantification and Statistical Analysis: Two-tailed student's t-test and two-way ANOVA with Bonferroni's post-hoc tests were used as detailed in the figure legends. […]

[4] = tested on: human trabecular meshwork (HTM) cells; test: HTM cell culture medium, extracellular proteins (dot blot); format: cell-based; conditions: dexamethasone
Method: as §1, §2, §3

[5] = tested on: Wild-type (WT) mice; test: Mouse model of steroid-induced glaucoma, IOP by rebound tonometer, WT mice; format: in vivo; conditions: 0.1% dexamethasone topically to the eye three times per day
Method: A cohort of 35 animals from separate litters were used for this study; 20 male mice (10 WT and 10 Myoc-KO) and 15 female mice (8 WT and 7 Myoc-KO). […] Technicians performing the drug delivery and tonometry measurements were blinded for animal genotype as well as each compound and the respective vehicle treatment. […] The drop was allowed to sit on the eye for 1 minute before the mouse was returned to its cage. One drop of 0.1% Dexamethasone eye drops (Dexamethasone Sodium Phosphate Ophthalmic Solution USP, 0.1% Dexamethasone Phosphate Equivalent; Bauch and Lomb) or PBS (vehicle) was applied to each eye. Dexamethasone treatments were conducted at 6:30 AM, 9 AM, and 2 PM, every day.
IOP Measurements: IOP levels in the mouse eye were obtained using the Icare TonoLab rebound tonometer and their guidelines were followed (Icare, Finland). Measurements were taken at LOAM to control for diurnal fluctuations in IOP levels which occur throughout the day. Mice were anesthetized with 3-4% isoflurane in oxygen once a week. After mice were sufficiently anesthetized, the mice were placed in an open restraint platform and IOP measurements were taken for each eye. […]

[6] = HTM cells treated with dex, 24 hours after Grp94 inhibitor treatment
[7] = HTM cells, 4Br-BnIm in the absence of dexamethasone

Row | Structure (SMILES) | effect on toxic mutant myocilin [1] | intracellular Collagen I levels [2, 6] | intracellular Fibronectin levels [2, 6] | Intracellular Collagen I [2, 7] | Intracellular Fibronectin [2, 7] | Collagen I in anterior eye lysates [3] | Fibronectin in anterior eye lysates [3] | increase of extracellular myocilin [4] | increase in IOP [5]
1 | COC(=O)c1c(O)cc(O)c(Cl)c1CCc1nccn1Cc1ccc(Br)cc1 [4Br—BnIm, methyl 2-(2-(1(4-bromobenzyl)-1H-imidazol-2-yl)ethyl)-3-chloro-4,6-dihydroxybenzoate] | degradation of toxic mutant myocilin | statistically significant decreases | statistically significant decreases | unchanged | unchanged | decrease in the mean values | decrease in the mean values | – | –
2 | C[C@@H]1C[C@H]2[C@@H]3CCC4=CC(=O)C=C[C@]4(C)[C@@]3(F)[C@@H](O)C[C@]2(C)[C@@]1(O)C(=O)CO [dexamethasone] | – | – | – | – | – | – | – | over 500% | roughly 33%
